ChEMBL document CHEMBL3301361, “Experimental in vitro DMPK and physicochemical data on a set of publicly disclosed compounds”

Columns and labels:
physchem = details: octan-1-ol/water, pH 7.4, LogD7.4
in vitro = details: human, plasma, PPB

Structure (SMILES)	logD (physchem)	fraction unbound at 5 h (in vitro)
C[C@H](Nc1nc(Nc2ncc(C#N)s2)cc(N2CCOCC2)n1)c1ccc(F)cn1	3.45	0.0594
NC(=O)c1cnc(N[C@H]2CCCNC2)c2cc(Br)sc12	1.08	0.179
O=c1cc(-c2ccccc2)ccn1-c1ccc2c(cnn2CCN2CCCC2)c1	1.6	0.17
COc1cc(OC)c2nc(C)c3c(c2c1)N(c1ccc(O)cc1)CC3	1.5	0.112
O=c1cc(O)oc2c1c(=O)n(-c1ccccc1)c1ccccc21	0.96	0.0183
COc1nccnc1NS(=O)(=O)c1ccc(N)cc1	-0.65	0.232
CNC(=O)c1snnc1-c1ccccc1	1.23	0.563
Cc1cccc(-c2nc3cc(Cl)ccc3[nH]2)n1	4.1	0.0111
CC[C@H]1CN(Cc2cc(Cl)ccc2OCC(=O)O)CCN1S(=O)(=O)c1ccccc1	0.44	0.0069
CCN(CC)S(=O)(=O)c1ccc(-c2nnc(SCC(=O)N3CCc4ccccc43)o2)cc1	3.9	0.0035
c1ccc2[nH]c(CCCc3nc4ccccc4[nH]3)nc2c1	3.5	0.0031
Cc1ccc(S(=O)(=O)N2N=Cc3oc(C)cc3B2O)cc1	-0.28	0.051
CSc1ccc(N2C(N)=NC(N)=NC2(C)C)cc1	-0.84	0.666
C[C@H]1O[C@@H](n2cnc3c(N)nc(OCC4CC45CC5)nc32)[C@H](O)[C@H]1Cl (some centres undefined)	3.68	0.0447
Cc1ccc(NC(=O)c2ccnc(N3CCOCC3)c2)cc1NC(=O)c1ccc(OCc2ccccn2)cc1	3.47	0.0149
COc1ccc2ncc(=O)n(CCN3CCC(NCc4cc5c(cn4)OCCO5)CC3)c2n1	0.83	0.465
COc1ccc2c(c1)N(CCN1CCC(NCc3ccc4c(n3)NC(=O)CO4)CC1)C(=O)CC2	0.66	0.0418
COc1ccc2c(c1)N(CCN1CCC(NCc3ccc4c(n3)NC(=O)CO4)CC1)C(=O)OC2	0.5	0.258
COc1ccc2ccc(=O)n(CCN3CCC(NCc4cc5c(cn4)OCCO5)CC3)c2c1	1.31	0.309
COc1ncc2ccc(=O)n(CCN3CCC(NCc4cc5c(cn4)OCCO5)CC3)c2n1	0.2	0.276
COc1ccc2ccc(=O)n(CCN3CCC(NCc4cc5c(cn4)OCCO5)CC3)c2n1	1.16	0.314
Cc1c(Sc2ccc(Cl)cc2)c2cc(S(C)(=O)=O)ccc2n1CC(=O)O	0.54	0.0127
Cc1ccc(S(=O)(=O)Nc2c(C(=O)N[C@@H](C)C(C)(C)C)c(C)nn2C2CCN(C)CC2)cc1	0.8	0.454
CN[C@@H](C)C(=O)N[C@H](C(=O)N[C@H]1CCCN(CCc2ccccc2)C1)C1CCCCC1	1.65	0.329

Structure (SMILES)	logD (physchem)	fraction unbound at 5 h (in vitro)
CN[C@@H](C)C(=O)N[C@H](C(=O)N[C@H]1CCN(Cc2ccccc2)C1)C1CCCCC1	1.49	0.511
CN[C@@H](C)C(=O)N[C@H](C(=O)N[C@H]1CCN(CCc2ccccc2)C1)C1CCCCC1	1.65	0.443
CN[C@@H](C)C(=O)N[C@H](C(=O)N[C@H]1CCN(C(=O)c2ccccc2)C1)C1CCCCC1	0.82	0.661
CN[C@@H](C)C(=O)N[C@H](C(=O)N[C@H]1CCN(C(=O)Cc2ccccc2)C1)C1CCCCC1	0.81	0.671
CN[C@@H](C)C(=O)N[C@H](C(=O)N[C@H]1CCCN(C(=O)c2ccccc2)C1)C1CCCCC1	0.87	0.552
CN[C@@H](C)C(=O)N[C@H](C(=O)N[C@H]1CCCN(C(=O)Cc2ccccc2)C1)C1CCCCC1	1.32	0.376
CN[C@@H](C)C(=O)N[C@H](C(=O)N[C@H]1CCCN(CCc2ccccc2)C1)C(C)(C)C	1.46	0.506
CN[C@@H](C)C(=O)N[C@H](C(=O)N[C@H]1CCCN(CCc2ccccc2OC)C1)C(C)(C)C	1.61	0.258
CN[C@@H](C)C(=O)N[C@H](C(=O)N[C@H]1CCCN(CCc2ccc([N+](=O)[O-])cc2)C1)C(C)(C)C	1.54	0.262
COc1cc(OC)c(S(=O)(=O)N(C)c2ccccc2)cc1NC(C)=O	1.1	0.179
COc1cc(OC)c(S(=O)(=O)N(c2ccccc2)C(C)C)cc1NC(C)=O	1.6	0.005
O=C1[C@@H]2[C@@H]3CC[C@@H](C3)[C@@H]2C(=O)N1[C@H]1CC[C@H](C(=O)Nc2cccc3cccnc23)CC1	3.94	0.016
Cn1ncc2c(=O)[nH]c(-c3ccccc3)nc21	1.61	0.0676
COc1ccc(-c2nc3c(OCC4CCNCC4)c(Br)cnc3[nH]2)cc1	1.55	0.134
O=C(c1cccc(Cc2n[nH]c(=O)c3ccccc23)c1)N1CCOCC1	1	0.415
COc1cccc(/C=C2\SC(=O)NC2=O)c1N1CCC[C@@H](N)C1	1.27	0.0836
Cc1nc(Cl)c(Cl)n1Cc1sc2c(c1C(=O)N1CC[C@@H](O)C1)c(=O)n(C)c(=O)n2CC(C)C	1.61	0.089
CC(=O)Nc1ccc2cnn(-c3cc(NC4CC4)n4ncc(C#N)c4n3)c2c1	3.44	0.0191
CC(=O)Nc1ccc2ccn(-c3cc(NCCCN(C)C)n4ncc(C#N)c4n3)c2c1	1.62	0.101
Cc1ccc2c(c1)c(-c1ccnc3c(S(C)(=O)=O)cccc13)c(C)n2CC(=O)O	-0.34	0.0606
N#Cc1ccc2ccc(=O)n(CCN3CC[C@H](NCc4ccc5c(n4)NC(=O)CO5)[C@H](O)C3)c2c1	0.11	0.208
COc1ccc2ncc(=O)n(CCN3CC[C@H](NCc4ccc5c(n4)NC(=O)CO5)[C@H](O)C3)c2c1	0.39	0.137
COc1ccc2ncc(=O)n(CCN3CC[C@@H](NCc4ccc5c(n4)NC(=O)CO5)[C@@H](O)C3)c2c1	0.37	0.0532
CO[C@H]1CN(CCn2c(=O)ccc3ccc(C#N)cc32)CC[C@H]1NCc1ccc2c(n1)NC(=O)CO2	0.32	0.535

Structure (SMILES)	logD (physchem)	fraction unbound at 5 h (in vitro)
CO[C@H]1CN(CCn2c(=O)ccc3ccc(C#N)cc32)CC[C@@H]1NCc1cc2c(cn1)OCCO2	1.05	0.16
CO[C@@H]1CN(CCn2c(=O)ccc3ccc(C#N)cc32)CC[C@H]1NCc1ccc2c(n1)NC(=O)CO2	0.81	0.276
COc1ccc2ncc(=O)n(CCN3CC[C@H](NCc4cc5c(cn4)OCCO5)[C@@H](OC)C3)c2c1	1.25	0.166
COc1ccc2ncc(=O)n(CCN3CC[C@@H](NCc4ccc5c(n4)NC(=O)CO5)[C@@H](F)C3)c2c1	0.83	0.244
CC(C)(C)OC(=O)NCCCSC[C@H]1O[C@@H](n2cnc3c(N)ncnc32)[C@H](O)[C@@H]1O	1.2	0.236
NC(=O)c1cncc(-c2ccc([C@H]3CC[C@H](CC(=O)O)CC3)cc2)c1	0.22	0.0268
CC[C@H](c1ccc(C(=O)O)c(Oc2cccc(Cl)c2)c1)N1CCC[C@H](n2cc(C)c(=O)[nH]c2=O)C1	0.22	0.0179
CC[C@@H](c1ccc(C(=O)O)c(Oc2cccc(Cl)c2)c1)N1CCC[C@H](n2cc(C)c(=O)[nH]c2=O)C1	0.22	0.0383
Cc1cn([C@H]2CCCN(Cc3ccc(C(=O)O)c(Oc4cccc(Br)c4)c3)C2)c(=O)[nH]c1=O	-0.51	0.0191
Cc1cn([C@H]2CCCN(Cc3ccc(C(=O)O)c(Oc4cccc(C(F)(F)F)c4)c3)C2)c(=O)[nH]c1=O	-0.38	0.0293
CS(=O)(=O)c1ccc2c(C(=O)NC[C@@H](O)CN3CCC(Oc4ccc(C#N)c(Cl)c4)CC3)c[nH]c(=O)c2c1	1.41	0.319
N#Cc1cccc(C(=O)NC[C@@H](O)CN2CCC(Oc3ccc(Cl)c(Cl)c3)CC2)c1	3.48	0.0647
Cc1cn([C@H]2CCCN(S(=O)(=O)c3ccc(C(=O)O)c(Oc4cccc(Cl)c4)c3)C2)c(=O)[nH]c1=O	-1.28	0.04
Cc1cn([C@H]2CCCN(S(=O)(=O)c3ccc(O)c(Oc4ccccc4)c3)C2)c(=O)[nH]c1=O	1.49	0.062
Cc1cn([C@H]2CCCN(S(=O)(=O)c3ccc(O)c(Oc4cccc(F)c4)c3)C2)c(=O)[nH]c1=O	1.6	0.0457
CC(=O)N[C@H](C)c1ccc(Nc2ncc3cc(-c4ccncc4)c(C)cc3n2)cc1	3.45	0.0191
CC(C)C[C@H](CO)Nc1nc(SCc2cccc(C#N)c2)nc2nc(N)sc12	3.9	0.0086
O=C(NO)C1COC(c2ccc(F)c(C(F)(F)F)c2)=N1 (centres undefined)	1.53	0.0836
COc1ccc(-c2nc(N3CCOCC3)nc(O)c2C#N)cc1	0.2	0.0647
COc1ccc(OC)c(CNc2[nH]nc3ccnc(Oc4ccccc4)c23)c1	4.25	0.0142
CNc1nc2ccccc2n1Cc1sc2c(c1C(=O)N1CC[C@@H](O)C1)c(=O)n(C)c(=O)n2CC(C)C	1.61	0.319
COc1cc2ncc(C(N)=O)c(Nc3ccccc3C)c2cc1OC	3.4	0.0081
c1ccc2c(c1)CCN(c1ccncc1)C2	1.4	0.431
CN1CCN(C(=O)c2cccc(Cc3n[nH]c(=O)c4ccccc34)c2)CC1	0.92	0.349
